{"source": "ChEMBL document CHEMBL1201862", "about": "“PubChem BioAssay data set” (2004)", "key": {"[1]": {"target": "Beta-2 adrenergic receptor (Homo sapiens, UniProt P07550)", "sequence (P07550 whole entry)": "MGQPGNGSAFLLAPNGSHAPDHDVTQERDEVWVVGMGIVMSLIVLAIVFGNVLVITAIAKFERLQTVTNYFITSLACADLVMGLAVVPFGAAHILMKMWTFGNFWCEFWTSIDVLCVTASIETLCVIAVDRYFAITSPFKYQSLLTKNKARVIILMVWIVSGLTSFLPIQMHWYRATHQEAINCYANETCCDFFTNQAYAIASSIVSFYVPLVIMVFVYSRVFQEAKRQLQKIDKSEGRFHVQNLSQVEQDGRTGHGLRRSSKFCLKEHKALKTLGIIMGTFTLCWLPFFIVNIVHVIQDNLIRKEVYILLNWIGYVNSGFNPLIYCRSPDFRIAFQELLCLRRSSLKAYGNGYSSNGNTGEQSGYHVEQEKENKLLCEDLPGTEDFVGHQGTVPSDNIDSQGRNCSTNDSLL", "experiment": "beta2AR agonists driving receptor internalization, dose response, cell-based, FAP fluorogen, flow cytometry, cherry pick 1 (AID 588763)", "format": "functional"}, "[2]": {"target": "Voltage-gated inwardly rectifying potassium channel KCNH2 (Homo sapiens, UniProt Q12809)", "sequence (Q12809 whole entry)": "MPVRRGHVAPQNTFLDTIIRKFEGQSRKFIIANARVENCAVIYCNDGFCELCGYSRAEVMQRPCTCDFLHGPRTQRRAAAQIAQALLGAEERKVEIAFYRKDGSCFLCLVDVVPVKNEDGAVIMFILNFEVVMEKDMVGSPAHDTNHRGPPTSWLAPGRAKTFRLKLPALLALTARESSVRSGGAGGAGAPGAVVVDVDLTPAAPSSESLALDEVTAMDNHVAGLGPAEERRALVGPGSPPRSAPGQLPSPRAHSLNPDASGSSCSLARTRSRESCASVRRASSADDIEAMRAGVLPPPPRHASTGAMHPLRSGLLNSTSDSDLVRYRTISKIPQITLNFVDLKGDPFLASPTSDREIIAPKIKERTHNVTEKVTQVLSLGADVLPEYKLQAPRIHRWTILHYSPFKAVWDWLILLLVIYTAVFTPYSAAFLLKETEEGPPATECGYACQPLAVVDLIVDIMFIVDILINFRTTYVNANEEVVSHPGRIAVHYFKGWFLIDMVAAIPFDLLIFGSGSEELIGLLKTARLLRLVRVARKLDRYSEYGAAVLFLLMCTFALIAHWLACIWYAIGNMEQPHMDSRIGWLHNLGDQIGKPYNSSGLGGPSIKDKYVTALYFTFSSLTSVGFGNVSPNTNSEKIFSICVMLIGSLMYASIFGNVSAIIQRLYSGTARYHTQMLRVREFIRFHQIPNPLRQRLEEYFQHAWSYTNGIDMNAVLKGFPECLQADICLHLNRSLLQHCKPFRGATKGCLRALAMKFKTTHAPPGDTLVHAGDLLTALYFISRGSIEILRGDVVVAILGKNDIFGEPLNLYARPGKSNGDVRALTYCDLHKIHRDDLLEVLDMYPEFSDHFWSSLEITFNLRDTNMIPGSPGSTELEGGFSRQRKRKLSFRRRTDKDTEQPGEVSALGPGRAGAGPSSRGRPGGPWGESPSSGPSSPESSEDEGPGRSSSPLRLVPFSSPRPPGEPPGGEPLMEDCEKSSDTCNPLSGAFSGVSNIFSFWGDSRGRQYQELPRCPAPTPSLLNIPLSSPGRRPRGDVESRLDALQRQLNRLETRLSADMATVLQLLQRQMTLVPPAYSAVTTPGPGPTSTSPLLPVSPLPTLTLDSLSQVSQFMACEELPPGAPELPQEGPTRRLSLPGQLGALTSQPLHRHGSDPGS", "conditions": "Potency"}, "[3]": {"experiment": "inhibitors of SNCA 5'UTR-driven translation, confirmation, luminescence, H4 neuroglioblastoma cells, dose confirmation (AID 2454)", "format": "functional, cell-based"}, "[4]": {"experiment": "Shn3 3'UTR reporter inhibitors, dose response, cell-based, Clone20 osteoblasts, firefly luciferase, cherry-picked (AID 624132)", "format": "functional"}, "[5]": {"experiment": "Luminescence Cell-Based Dose Response HTS to Identify Inhibitors of 5'UTR Stem-Loop Driven Prion Protein mRNA Translation in H4 Neuroglioblastoma Cells. [Related pubchem assays: 1827 (Project Summary), 1813 (Primary HTS)]", "format": "functional"}, "[6]": {"experiment": "luciferase reporter signal reduction – luminescence, H4-C neuroglioblastoma cells, dose response (AID 2458);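 also: H4 neuroglioblastoma cells stably carrying a luciferase reporter gene fusion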", "format": "functional, cell-based"}, "[7]": {"target": "Luciferin 4-monooxygenase (Photuris pensylvanica, UniProt Q27757)", "experiment": "firefly luciferase enzyme inhibitors, dose response, counter-screen for HSF-1 reporter inhibitor project, biochemical, Cell Titer Glo, luminescence, cherry-picks (AID 588847)"}, "[8]": {"experiment": "inhibitors of firefly luciferase expression or activity, dose response, H4 neuroglioma cells, luminescence (AID 1990)", "format": "functional, cell-based"}, "[9]": {"target": "T1, Heat shock factor protein 1 (Mus musculus, UniProt P38532)", "T1 sequence (P38532 whole entry)": "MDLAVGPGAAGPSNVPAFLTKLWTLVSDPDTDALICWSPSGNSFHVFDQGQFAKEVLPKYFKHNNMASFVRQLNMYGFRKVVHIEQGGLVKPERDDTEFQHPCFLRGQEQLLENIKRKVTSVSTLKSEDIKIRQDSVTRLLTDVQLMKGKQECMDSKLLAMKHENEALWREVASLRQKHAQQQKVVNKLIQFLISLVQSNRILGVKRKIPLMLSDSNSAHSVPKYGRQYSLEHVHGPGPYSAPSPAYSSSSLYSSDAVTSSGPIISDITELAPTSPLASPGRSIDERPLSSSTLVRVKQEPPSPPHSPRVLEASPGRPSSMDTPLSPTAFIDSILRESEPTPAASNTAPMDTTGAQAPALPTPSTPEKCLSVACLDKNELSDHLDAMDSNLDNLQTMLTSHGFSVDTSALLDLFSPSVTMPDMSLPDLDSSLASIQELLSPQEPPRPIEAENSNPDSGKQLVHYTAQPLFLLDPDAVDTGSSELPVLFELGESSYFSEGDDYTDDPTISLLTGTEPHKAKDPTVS", "experiment": "inhibition of MG132-induced HSE-luciferase signal, confirmation, cell-based, NIH3T3, luminescence, dose retest (AID 2382);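 also: NIH3T3 fibroblasts with HSF1-driven luciferase reporter stressed by proteasome inhibitor MG132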", "format": "functional"}, "cells": {"experiment": "cells", "format": "functional, cell-based"}, "[10]": {"experiment": "HepG2 cell cytotoxicity, dose response, cytotoxicity control for Shn3 inhibitor project, CellTiter-Glo, cherry-picked (AID 624134)", "format": "functional, cell-based"}, "[11]": {"experiment": "inhibitors of SNCA 5'UTR-driven reporter translation, confirmation, H4 neuroglioma cells, luminescence (AID 1988)", "format": "functional, cell-based"}, "[12]": {"experiment": "control 3'UTR Renilla luciferase suppression, dose response, counter-screen for Shn3 inhibitor project, cell-based, Clone20-Shn3RL, cherry-picked (AID 624133)", "format": "functional"}, "[13]": {"target": "Glycogen synthase kinase-3 alpha (Homo sapiens, UniProt P49840)", "sequence (P49840 whole entry)": "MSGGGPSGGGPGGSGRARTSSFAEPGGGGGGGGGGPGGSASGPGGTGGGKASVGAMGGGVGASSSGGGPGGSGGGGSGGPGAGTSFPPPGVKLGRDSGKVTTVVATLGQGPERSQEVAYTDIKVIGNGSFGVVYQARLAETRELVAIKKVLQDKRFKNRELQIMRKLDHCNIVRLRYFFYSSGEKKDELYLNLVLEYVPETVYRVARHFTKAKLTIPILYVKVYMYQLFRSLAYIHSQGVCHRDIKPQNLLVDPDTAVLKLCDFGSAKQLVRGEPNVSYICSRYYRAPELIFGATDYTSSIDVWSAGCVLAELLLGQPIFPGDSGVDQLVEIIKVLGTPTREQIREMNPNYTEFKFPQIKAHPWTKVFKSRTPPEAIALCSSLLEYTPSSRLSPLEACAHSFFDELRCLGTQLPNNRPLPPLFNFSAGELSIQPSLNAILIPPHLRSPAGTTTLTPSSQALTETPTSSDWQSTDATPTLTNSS", "experiment": "Inhibition of Human GSK-3 alpha Activity Measured in Biochemical System Using Microfluidics - 2063-06_Inhibitor_Dose_DryPowder_Activity. [Related pubchem assays (depositor defined):AID2709]"}, "[14]": {"target": "Glycogen synthase kinase-3 beta (Homo sapiens, UniProt P49841)", "experiment": "Inhibition of Human GSK-3 beta Activity Measured in Biochemical System Using Microfluidics - 2063-05_Inhibitor_Dose_DryPowder_Activity. [Related pubchem assays (depositor defined):AID2709]"}, "Beta-arrestin-1": {"target": "Beta-arrestin-1 (Homo sapiens, UniProt P49407)", "sequence (P49407 whole entry)": "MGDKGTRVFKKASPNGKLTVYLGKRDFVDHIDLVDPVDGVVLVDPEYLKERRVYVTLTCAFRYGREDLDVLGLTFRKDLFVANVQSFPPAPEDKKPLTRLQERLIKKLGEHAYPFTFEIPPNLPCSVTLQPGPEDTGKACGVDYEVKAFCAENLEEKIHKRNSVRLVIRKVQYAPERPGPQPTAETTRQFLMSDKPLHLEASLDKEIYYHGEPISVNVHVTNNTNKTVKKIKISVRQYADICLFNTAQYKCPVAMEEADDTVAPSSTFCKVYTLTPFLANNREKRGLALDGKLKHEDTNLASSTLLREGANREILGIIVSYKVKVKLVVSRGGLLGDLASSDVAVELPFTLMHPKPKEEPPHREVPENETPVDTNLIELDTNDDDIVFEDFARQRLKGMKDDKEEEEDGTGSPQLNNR", "experiment": "inhibitors of arrestin peptide binding to AP2, dose response, biochemical, cherry pick 1, beta2-adaptin appendage, flow cytometry (AID 588783)", "format": "functional"}, "Streptococcus": {"system": "Streptococcus", "experiment": "Group A Streptococcus viability loss, dose response, counter-screen for streptokinase expression inhibitor project, luminescence, BacTiterGlo (AID 1915)", "format": "functional, organism-based"}, "Streptokinase A": {"target": "T2, Streptokinase A (Streptococcus pyogenes serotype M1, UniProt P10520)", "T2 sequence (P10520 whole entry)": "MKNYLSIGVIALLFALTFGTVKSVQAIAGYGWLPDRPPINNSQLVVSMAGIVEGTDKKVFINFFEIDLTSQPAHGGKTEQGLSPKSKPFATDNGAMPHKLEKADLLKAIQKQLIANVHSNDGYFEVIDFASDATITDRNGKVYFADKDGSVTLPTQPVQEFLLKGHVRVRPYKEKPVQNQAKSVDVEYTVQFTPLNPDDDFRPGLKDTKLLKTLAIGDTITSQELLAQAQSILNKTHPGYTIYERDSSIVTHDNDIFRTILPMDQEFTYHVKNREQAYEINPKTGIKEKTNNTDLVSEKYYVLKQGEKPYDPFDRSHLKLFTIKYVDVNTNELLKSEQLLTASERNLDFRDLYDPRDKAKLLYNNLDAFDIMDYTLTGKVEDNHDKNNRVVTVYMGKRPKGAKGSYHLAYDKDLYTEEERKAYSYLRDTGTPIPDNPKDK", "experiment": "S. pyogenes streptokinase expression inhibitors, potency, dose response, plasminogen activation absorbance, OD405 (AID 1914);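 also: secreted streptokinase activity via plasminogen activation per viability signal from cell pellet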", "format": "functional, Streptococcus pyogenes M1 GAS"}, "[15]": {"system": "Streptococcus sp. 'group A'", "experiment": "growth inhibition of control SK(-) GAS strain, dose response, counter-screen for streptokinase expression inhibitor project, luminescence, kanamycin, BacTiterGlo, confirmation (AID 1900)", "format": "functional, organism-based"}, "[16]": {"target": "Beta-adrenergic receptor kinase 1 (Homo sapiens, UniProt P25098)", "sequence (P25098 whole entry)": "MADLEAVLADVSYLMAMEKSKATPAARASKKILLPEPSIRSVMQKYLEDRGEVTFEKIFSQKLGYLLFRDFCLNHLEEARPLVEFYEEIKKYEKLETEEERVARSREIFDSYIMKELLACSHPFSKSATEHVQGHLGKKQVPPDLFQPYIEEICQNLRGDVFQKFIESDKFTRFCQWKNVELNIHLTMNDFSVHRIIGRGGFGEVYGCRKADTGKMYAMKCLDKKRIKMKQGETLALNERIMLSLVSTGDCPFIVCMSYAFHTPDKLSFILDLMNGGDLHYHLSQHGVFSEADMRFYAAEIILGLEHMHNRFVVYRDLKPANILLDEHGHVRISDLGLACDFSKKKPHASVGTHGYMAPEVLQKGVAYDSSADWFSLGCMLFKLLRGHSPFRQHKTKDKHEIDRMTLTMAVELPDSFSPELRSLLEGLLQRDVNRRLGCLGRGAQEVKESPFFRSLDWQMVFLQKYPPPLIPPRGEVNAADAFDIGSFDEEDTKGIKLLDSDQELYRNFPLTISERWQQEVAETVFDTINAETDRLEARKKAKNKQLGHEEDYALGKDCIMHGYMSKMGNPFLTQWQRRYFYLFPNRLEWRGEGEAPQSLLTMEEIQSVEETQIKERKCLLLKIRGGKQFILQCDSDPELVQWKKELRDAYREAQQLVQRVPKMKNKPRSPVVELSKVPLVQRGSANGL", "experiment": "aptamer displacement from bead-bound GRK2 – biochemical, cherry pick 1, bead flow cytometry, dose response (AID 504500)"}, "HEK293": {"system": "HEK293", "experiment": "cells", "format": "functional, cell-based", "conditions": "Homo sapiens"}, "[17]": {"experiment": "LGR2 antagonists, dose response, cell-based, HEK293, CRE-luciferase reporter, cherry pick, set 2 (AID 743343);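 also: transfected cells were stimulated with diluted bursicon conditioned medium after compound addition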", "format": "functional"}, "[18]": {"experiment": "MC4R antagonists, dose response, counter-screen for LGR2 antagonist project, cell-based, plate reader, cherry pick (AID 743444);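 also: transfected HEK 293 cells stimulated with alpha-MSH peptide; potency of inhibitors of the alpha-MSH evoked signal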", "format": "functional"}, "[19]": {"target": "T3, Nuclear receptor subfamily 0 group B member 1 (Homo sapiens, UniProt P51843)", "T3 sequence (P51843 whole entry)": "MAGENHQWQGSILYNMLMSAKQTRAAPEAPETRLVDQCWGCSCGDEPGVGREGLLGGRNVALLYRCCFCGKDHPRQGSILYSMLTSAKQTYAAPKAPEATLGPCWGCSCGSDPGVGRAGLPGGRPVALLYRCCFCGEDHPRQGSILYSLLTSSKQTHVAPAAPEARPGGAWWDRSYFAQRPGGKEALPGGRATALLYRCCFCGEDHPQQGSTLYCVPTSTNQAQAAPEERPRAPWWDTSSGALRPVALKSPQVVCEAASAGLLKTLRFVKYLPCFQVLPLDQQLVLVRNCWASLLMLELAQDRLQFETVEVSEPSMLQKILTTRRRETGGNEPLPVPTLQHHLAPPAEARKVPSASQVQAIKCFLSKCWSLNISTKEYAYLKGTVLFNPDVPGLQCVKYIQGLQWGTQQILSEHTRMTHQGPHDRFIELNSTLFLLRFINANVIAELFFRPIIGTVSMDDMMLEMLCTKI", "experiment": "Luminescence-based cell-based high throughput dose response assay for inhibitors of the orphan nuclear receptor subfamily 0, group B, member 1 (DAX1; NR0B1). [Related pubchem assays (depositor defined):AID504766, AID504790]", "format": "functional"}, "[20]": {"experiment": "HepG2 cell cytotoxicity, dose response, cytotoxicity control, plate reader, cherry-pick, antagonist series (AID 743416)", "format": "functional, cell-based"}, "[21]": {"experiment": "Fluorescence polarization-based biochemical high throughput dose response assay for activators of the Protein Kinase A-R1A (PKA-R1A) complex. [Related pubchem assays (depositor defined):AID504704, AID504707, AID504799, AID504800]"}, "[22]": {"experiment": "Fluorescence polarization-based biochemical high throughput dose response assay for activators of the Protein Kinase A-R2B (PKA-R2B) complex. [Related pubchem assays (depositor defined):AID504700, AID504704, AID504796, AID504797]"}, "DNA topoisomerase": {"target": "DNA topoisomerase (Yersinia pestis, UniProt A0A2S9PM60)", "sequence (A0A2S9PM60 whole entry)": "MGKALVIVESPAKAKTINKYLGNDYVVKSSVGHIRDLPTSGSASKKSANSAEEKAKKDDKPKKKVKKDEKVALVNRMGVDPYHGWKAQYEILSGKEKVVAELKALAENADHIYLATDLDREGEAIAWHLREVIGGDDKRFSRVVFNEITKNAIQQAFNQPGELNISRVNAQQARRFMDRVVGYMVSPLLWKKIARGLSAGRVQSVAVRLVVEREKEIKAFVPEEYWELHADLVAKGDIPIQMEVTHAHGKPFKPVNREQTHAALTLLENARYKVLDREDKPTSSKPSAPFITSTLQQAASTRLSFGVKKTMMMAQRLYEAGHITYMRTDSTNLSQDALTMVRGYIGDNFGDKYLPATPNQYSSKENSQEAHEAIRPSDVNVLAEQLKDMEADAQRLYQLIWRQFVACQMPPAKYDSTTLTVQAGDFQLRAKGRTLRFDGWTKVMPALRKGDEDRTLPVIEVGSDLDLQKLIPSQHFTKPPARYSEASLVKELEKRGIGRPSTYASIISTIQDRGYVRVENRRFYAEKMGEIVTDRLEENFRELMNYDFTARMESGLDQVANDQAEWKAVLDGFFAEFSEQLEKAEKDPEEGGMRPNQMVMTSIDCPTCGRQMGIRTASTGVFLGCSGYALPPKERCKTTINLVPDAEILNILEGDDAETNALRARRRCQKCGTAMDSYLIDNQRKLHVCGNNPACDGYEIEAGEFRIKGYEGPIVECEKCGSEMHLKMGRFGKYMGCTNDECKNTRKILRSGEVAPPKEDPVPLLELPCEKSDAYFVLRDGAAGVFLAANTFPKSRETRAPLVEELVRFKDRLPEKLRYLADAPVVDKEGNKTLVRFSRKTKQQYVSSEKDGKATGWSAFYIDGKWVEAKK", "experiment": "Y. pestis Topo-I inhibitors, cleavage product readout, dose response, biochemical, cherry-pick (AID 588525)"}, "Beta-galactosidase": {"target": "Beta-galactosidase (Escherichia coli, UniProt Q8VNN2)", "sequence (Q8VNN2 whole entry)": "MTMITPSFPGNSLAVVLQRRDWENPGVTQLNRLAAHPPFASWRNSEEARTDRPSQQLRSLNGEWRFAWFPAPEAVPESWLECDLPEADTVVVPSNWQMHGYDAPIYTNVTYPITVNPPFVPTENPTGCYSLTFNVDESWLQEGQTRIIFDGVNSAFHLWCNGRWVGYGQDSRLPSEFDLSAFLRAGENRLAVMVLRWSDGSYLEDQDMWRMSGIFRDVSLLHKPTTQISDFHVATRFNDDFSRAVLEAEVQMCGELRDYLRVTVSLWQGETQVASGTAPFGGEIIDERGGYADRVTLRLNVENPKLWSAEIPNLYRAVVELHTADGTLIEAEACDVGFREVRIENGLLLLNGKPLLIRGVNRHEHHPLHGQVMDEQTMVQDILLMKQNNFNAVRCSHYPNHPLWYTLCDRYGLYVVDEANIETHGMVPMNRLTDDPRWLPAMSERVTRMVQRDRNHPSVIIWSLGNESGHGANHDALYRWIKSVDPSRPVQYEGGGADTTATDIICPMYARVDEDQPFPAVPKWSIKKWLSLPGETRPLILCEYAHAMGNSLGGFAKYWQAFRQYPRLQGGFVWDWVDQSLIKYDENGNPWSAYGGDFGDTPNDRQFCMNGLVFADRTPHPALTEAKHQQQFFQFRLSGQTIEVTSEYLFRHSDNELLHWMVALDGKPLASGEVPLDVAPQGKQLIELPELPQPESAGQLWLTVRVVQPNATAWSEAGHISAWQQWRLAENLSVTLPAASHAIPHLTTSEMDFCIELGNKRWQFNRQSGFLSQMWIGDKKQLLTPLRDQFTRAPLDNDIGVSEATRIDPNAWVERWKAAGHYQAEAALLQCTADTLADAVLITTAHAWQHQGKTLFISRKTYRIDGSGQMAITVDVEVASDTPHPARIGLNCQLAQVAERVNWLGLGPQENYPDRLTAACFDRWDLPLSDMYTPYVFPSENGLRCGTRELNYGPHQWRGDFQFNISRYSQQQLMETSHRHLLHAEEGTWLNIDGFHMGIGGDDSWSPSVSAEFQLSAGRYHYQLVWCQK", "experiment": "PubChem AID 485352", "format": "functional"}, "[23]": {"target": "T4, Type-1 angiotensin II receptor (Homo sapiens, UniProt P30556)", "T4 sequence (P30556 whole entry)": "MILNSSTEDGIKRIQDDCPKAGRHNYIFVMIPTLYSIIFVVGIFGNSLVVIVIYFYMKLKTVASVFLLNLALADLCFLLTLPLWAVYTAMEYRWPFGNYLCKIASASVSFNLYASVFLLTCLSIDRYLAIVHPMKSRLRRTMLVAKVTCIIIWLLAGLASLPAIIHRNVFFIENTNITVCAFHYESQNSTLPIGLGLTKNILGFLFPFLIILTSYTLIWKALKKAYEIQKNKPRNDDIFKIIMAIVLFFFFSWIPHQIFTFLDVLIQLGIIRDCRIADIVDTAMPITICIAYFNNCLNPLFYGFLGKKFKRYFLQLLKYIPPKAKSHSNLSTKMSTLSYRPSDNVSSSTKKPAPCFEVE", "experiment": "AT1 receptor antagonists, dose response, selectivity assay for APJ receptor antagonist project, cell-based, uHTS hits (AID 463214);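 also: antagonist potency against angiotensin II stimulated AT1 response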", "format": "functional"}}, "note": "Activity calls are given as the source filed them."}
{"smiles": "CC(=O)N1c2ccccc2C(C)(c2ccccc2)CC1(C)C", "note": "(stereo not given)", "values": [{"measurement": "EC50", "setting": "[1]", "value": "9.29 µM (active)"}]}
{"smiles": "NCCNS(=O)(=O)c1cccc2cnccc12", "values": [{"measurement": "AC50", "setting": "[2]", "value": "12.6 µM (inconclusive)"}]}
{"smiles": "O=c1c2ccccc2sc2ccc(C#CC3(O)CCCCC3)cc12", "values": [{"measurement": "EC50", "setting": "[3]", "value": "0.118 µM (active)"}, {"measurement": "AC50", "setting": "[4]", "value": "< 0.26 µM (active)"}, {"measurement": "EC50", "setting": "[5]", "value": "< 0.1 µM (active)"}, {"measurement": "EC50", "setting": "[6]", "value": "0.14 µM (active)"}, {"measurement": "AC50", "setting": "[7]", "value": "0.555 µM (active)"}, {"measurement": "EC50", "setting": "[8]", "value": "< 0.1 µM (active)"}, {"measurement": "EC50", "setting": "[9]", "value": "< 0.16 µM (active)"}, {"measurement": "EC50", "setting": "cells", "value": "0.083 µM (active)"}, {"measurement": "AC50", "setting": "[10]", "value": "> 70 µM (inactive)"}, {"measurement": "EC50", "setting": "[11]", "value": "< 0.1 µM (active)"}, {"measurement": "AC50", "setting": "[12]", "value": "29.8 µM (active)"}]}
{"smiles": "Nc1nc(NCCCN2CCOCC2)nc(Nc2ccc(F)cc2)c1[N+](=O)[O-]", "values": [{"measurement": "AC50", "setting": "[13]", "value": "1.25 µM (active)"}, {"measurement": "AC50", "setting": "[14]", "value": "0.406 µM (active)"}]}
{"smiles": "Brc1ccccc1C1Nc2cccc3cccc(c23)N1", "values": [{"measurement": "IC50", "setting": "Beta-arrestin-1", "value": "2.94 µM (inactive)"}, {"measurement": "EC50", "setting": "Streptococcus", "value": "14.2 µM (active)"}, {"measurement": "EC50", "setting": "Streptokinase A", "value": "> 150 µM (not active)"}, {"measurement": "EC50", "setting": "[15]", "value": "9.74 µM (active)"}]}
{"smiles": "CCCCCC(=O)Nc1cccc(C2=NOC3(C2)C[C@@H](C(N)=O)N(C(=O)c2ccc(OC)cc2)C3)c1", "note": "(stereo not given in full)", "values": [{"measurement": "EC50", "setting": "[16]", "value": "4.38 µM (active)"}]}
{"smiles": "Cc1ccc(-c2cnn3c(N4CCOCC4)cc(C)nc23)cc1", "values": [{"measurement": "IC50", "setting": "HEK293", "value": "> 67.5 µM (inactive)"}, {"measurement": "AC50", "setting": "[17]", "value": "17.4 µM (active)"}, {"measurement": "AC50", "setting": "[18]", "value": "23.6 µM (active)"}, {"measurement": "IC50", "setting": "[19]", "value": "> 67.5 µM (inactive)"}, {"measurement": "AC50", "setting": "[20]", "value": "> 52 µM (inactive)"}]}
{"smiles": "Nc1ncnc2c1nc(Sc1ccc(Cl)cc1)n2[C@@H]1O[C@@H]2COP(=O)(O)O[C@H]2[C@H]1O", "values": [{"measurement": "EC50", "setting": "[21]", "value": "0.0327 µM (active)"}, {"measurement": "EC50", "setting": "[22]", "value": "0.0505 µM (active)"}]}
{"smiles": "NC(=O)c1ccccc1NCC(=O)c1ccc(Cl)cc1", "values": [{"measurement": "AC50", "setting": "DNA topoisomerase", "value": "7.76 µM (active)"}, {"measurement": "EC50", "setting": "Beta-galactosidase", "value": "> 40 µM (inactive)"}, {"measurement": "IC50", "setting": "[23]", "value": "7.41 µM (active)"}]}
